Results taken from the supplement of paper PMC6045584.
± gives the standard deviation of the averaged measurements.

Key:
2-METHOXYESTRADIOL = compound: COc1cc2c(cc1O)CC[C@@H]1[C@@H]2CC[C@]2(C)[C@@H](O)CC[C@@H]12 [2-METHOXYESTRADIOL]; assay: surviving fraction relative to DMSO-only wells; higher = less growth inhibition; settings: exposure time: 5 days
How it was run: (§1)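 Viability was scored with CellTiter-Glo luminescence and normalised to the median of DMSO-only wells as surviving fraction. Beforehand, log-phase tumour cell lines were seeded at 250–500 cells per well in 384-well plates, allowed 24 hours, and exposed continuously for five days to inhibitors at 0.5, 1, 5, 10, 50, 100, 500 and 1000 nM. Only lines whose three screens gave replicate Pearson r >0.7 and median Z' >0.3 were kept.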

FLAVOPIRIDOL = compound: CN1CC[C@H](c2c(O)cc(O)c3c(=O)cc(-c4ccccc4Cl)oc23)[C@H](O)C1 [FLAVOPIRIDOL]; assay: as above; settings: exposure time: 5 days
How it was run: as §1

Test System	surviving fraction (2-METHOXYESTRADIOL; 0.5 nM)	surviving fraction (2-METHOXYESTRADIOL; 1 nM)	surviving fraction (2-METHOXYESTRADIOL; 5 nM)	surviving fraction (2-METHOXYESTRADIOL; 10 nM)	surviving fraction (2-METHOXYESTRADIOL; 50 nM)	surviving fraction (2-METHOXYESTRADIOL; 100 nM)	surviving fraction (2-METHOXYESTRADIOL; 500 nM)	surviving fraction (2-METHOXYESTRADIOL; 1000 nM)	surviving fraction (FLAVOPIRIDOL; 0.5 nM)	surviving fraction (FLAVOPIRIDOL; 1 nM)	surviving fraction (FLAVOPIRIDOL; 5 nM)	surviving fraction (FLAVOPIRIDOL; 10 nM)	surviving fraction (FLAVOPIRIDOL; 50 nM)	surviving fraction (FLAVOPIRIDOL; 100 nM)	surviving fraction (FLAVOPIRIDOL; 500 nM)	surviving fraction (FLAVOPIRIDOL; 1000 nM)
SCC36 HEADNECK	1.09 ± 0.053	1.03 ± 0.052	1.09 ± 0.083	1.04 ± 0.091	1.22 ± 0.065	1.14 ± 0.016	0.94 ± 0.096	0.251 ± 0.029	0.982 ± 0.1	0.974 ± 0.062	1.14 ± 0.16	1.24 ± 0.15	0.962 ± 0.086	0.405 ± 0.0093	0.036 ± 0.0035	0.032 ± 0.001
SCC47 HEADNECK	0.816 ± 0.11	0.912 ± 0.15	0.977 ± 0.055	1.1 ± 0.16	1.09 ± 0.11	1.12 ± 0.15	0.838 ± 0.046	0.872 ± 0.12	1.18 ± 0.052	1.2 ± 0.061	1.23 ± 0.093	1.15 ± 0.078	0.665 ± 0.013	0.153 ± 0.043	0.039 ± 0.0017	0.0353 ± 0.0029
SCC90 HEADNECK	0.927 ± 0.058	0.721 ± 0.076	1.02 ± 0.1	0.923 ± 0.12	1 ± 0.1	0.875 ± 0.099	0.185 ± 0.017	0.102 ± 0.013	1.07 ± 0.099	1.08 ± 0.072	1.12 ± 0.085	1.07 ± 0.12	0.834 ± 0.079	0.378 ± 0.086	0.0317 ± 0.0057	0.027 ± 0.002
SG27 HEADNECK	1.14 ± 0.19	1.2 ± 0.083	1.04 ± 0.12	1.05 ± 0.081	1.05 ± 0.085	1.16 ± 0.2	1.09 ± 0.062	1.03 ± 0.079	1.16 ± 0.11	1.04 ± 0.04	0.987 ± 0.12	1.02 ± 0.3	0.844 ± 0.087	0.368 ± 0.063	0.0753 ± 0.047	0.071 ± 0.032
SG28 HEADNECK	1.07 ± 0.037	1.18 ± 0.096	0.94 ± 0.0042	1.11 ± 0.016	1.11 ± 0.13	1.06 ± 0.048	1.06 ± 0.066	1.02 ± 0.064	1.11 ± 0.096	1.1 ± 0.023	1.02 ± 0.081	1.04 ± 0.099	0.594 ± 0.089	0.0495 ± 0.0064	0.0315 ± 0.00071	0.032 ± 0.0028
SG31 HEADNECK	1.09 ± 0.23	1.12 ± 0.13	0.996 ± 0.26	1.09 ± 0.084	1 ± 0.077	0.949 ± 0.025	1.12 ± 0.13	0.962 ± 0.073	1.51 ± 0.26	1.23 ± 0.055	0.964 ± 0.096	0.988 ± 0.053	0.483 ± 0.057	0.147 ± 0.038	0.0443 ± 0.024	0.027 ± 0.0046
SG32 HEADNECK	1.04 ± 0.1	0.985 ± 0.03	1.04 ± 0.21	0.96 ± 0.083	0.947 ± 0.059	0.847 ± 0.075	0.62 ± 0.12	0.34 ± 0.034	1.14 ± 0.2	1.28 ± 0.092	1.07 ± 0.24	0.823 ± 0.14	0.227 ± 0.063	0.048 ± 0.01	0.0283 ± 0.013	0.0237 ± 0.0046
SG43 HEADNECK	0.84 ± 0.071	0.88 ± 0.13	0.807 ± 0.25	1.04 ± 0.39	0.702 ± 0.091	0.854 ± 0.23	0.91 ± 0.082	0.847 ± 0.11	1.04 ± 0.084	1.18 ± 0.081	0.885 ± 0.11	1.07 ± 0.044	0.812 ± 0.049	0.562 ± 0.12	0.028 ± 0.0062	0.033 ± 0.0076
